From patent EP4793271A1, “NEUROPROTECTIVE AGENT” (National Center of Neurology and Psychiatry, priority 2023, dated 2025)
Like-named read-outs stand apart in the source and are kept apart here.

What was measured:
hSARM1 [1] = molecular target: T1, hSARM1 (Homo sapiens, UniProt Q6SZW1); assay: SARM1 inhibitory activity using recombinant SARM1 (PC6 base exchange fluorescence); assay type: biochemical; parameters: purchased BPS Bioscience; details: recombinant human SARM1 2 ng/µL; NMN 10 µM; NAD 1 mM; PC6 50 µM; result in words
T1 sequence (Q6SZW1 28-724): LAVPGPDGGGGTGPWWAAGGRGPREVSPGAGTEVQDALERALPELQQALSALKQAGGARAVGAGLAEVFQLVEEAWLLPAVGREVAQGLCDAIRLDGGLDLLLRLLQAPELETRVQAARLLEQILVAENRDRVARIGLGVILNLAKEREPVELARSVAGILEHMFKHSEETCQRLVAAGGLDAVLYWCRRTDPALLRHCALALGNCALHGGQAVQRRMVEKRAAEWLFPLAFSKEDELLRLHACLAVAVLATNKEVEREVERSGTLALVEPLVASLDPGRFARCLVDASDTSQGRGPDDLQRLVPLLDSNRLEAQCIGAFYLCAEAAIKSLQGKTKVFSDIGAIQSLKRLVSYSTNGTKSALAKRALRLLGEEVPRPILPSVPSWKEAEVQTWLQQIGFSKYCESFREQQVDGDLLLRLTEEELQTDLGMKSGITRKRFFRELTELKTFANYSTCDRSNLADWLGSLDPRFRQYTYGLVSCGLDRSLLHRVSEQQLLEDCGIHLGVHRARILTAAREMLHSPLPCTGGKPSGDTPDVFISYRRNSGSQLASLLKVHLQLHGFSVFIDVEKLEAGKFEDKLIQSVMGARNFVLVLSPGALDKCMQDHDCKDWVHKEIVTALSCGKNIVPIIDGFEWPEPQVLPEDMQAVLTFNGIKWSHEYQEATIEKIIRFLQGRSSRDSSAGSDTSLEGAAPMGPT
Method: The SARM1 inhibitory activity was evaluated by the following method using recombinant SARM1 from BPS Bioscience.
NMN, an endogenous activator for SARM1, was added at a final concentration of 10 µM to a reaction solution (composition: 40 mM HEPES-KOH (pH 7.4), 0.1% polyvinyl alcohol, and 110 mM potassium acetate) using a 96-well black plate. Subsequently, serial dilutions of the test compound and recombinant human SARM1 (final concentration: 2 ng/µL) were added thereto and preincubated at room temperature for 5 to 10 minutes. NAD and PC6 were added as substrates at final concentrations of 1 mM and 50 µM, respectively, to each well and incubated at room temperature for 1 hour, followed by fluorescent signal measurement using SpectraMax M2 (Molecular Devices) (excitation: 390 nm, fluorescence: 520 nm, fluorescence cutoff: 515 nm) (Li et al, eLife 2021 10: e67381). The fluorescent signal was normalized by using fluorescence intensity measured from a control group without addition of recombinant human SARM1 as a background whereas using fluorescence intensity measured from a control group supplemented with recombinant human SARM1 as the negative control, and plotted as the function of the test compound concentrations, and the compound was evaluated for its SARM1 inhibitory activity by calculating IC50.

[2] = mouse, in vivo
Method: Compound 35 was intravenously (iv: 1 mg/5 ml/kg) administered at a single dose to C57BL/6J male mice (about 10 weeks old (non-fasted), n = 3), and blood was collected 5, 15, and 30 minutes, and 1, 2, 4, 8, and 24 hours later. Likewise, compound 35 was orally (po: 10 mg/10 ml/kg) administered at a single dose to C57BL/6J male mice (about 10 weeks old (non-fasted), n = 3), and blood was collected 15 and 30 minutes, and 1, 2, 4, 8, and 24 hours later. Urine was collected from each mouse up to 24 hours after administration (pooled urine).

[3] = molecular target: T2, nicotinamide phosphoribosyl transferase (NAMPT) (Homo sapiens, UniProt P43490); assay: NAMPT activity measurement (NMN fluorescence detection); assay type: biochemical; details: NAMPT recombinant protein, 10 µM Nam; for IC50: read-out: Evaluation on NAMPT inhibitory
T2 construct: purchased Medical & Biological Laboratories Co., Ltd. (MBL)
T2 sequence (P43490 whole entry, species assumed): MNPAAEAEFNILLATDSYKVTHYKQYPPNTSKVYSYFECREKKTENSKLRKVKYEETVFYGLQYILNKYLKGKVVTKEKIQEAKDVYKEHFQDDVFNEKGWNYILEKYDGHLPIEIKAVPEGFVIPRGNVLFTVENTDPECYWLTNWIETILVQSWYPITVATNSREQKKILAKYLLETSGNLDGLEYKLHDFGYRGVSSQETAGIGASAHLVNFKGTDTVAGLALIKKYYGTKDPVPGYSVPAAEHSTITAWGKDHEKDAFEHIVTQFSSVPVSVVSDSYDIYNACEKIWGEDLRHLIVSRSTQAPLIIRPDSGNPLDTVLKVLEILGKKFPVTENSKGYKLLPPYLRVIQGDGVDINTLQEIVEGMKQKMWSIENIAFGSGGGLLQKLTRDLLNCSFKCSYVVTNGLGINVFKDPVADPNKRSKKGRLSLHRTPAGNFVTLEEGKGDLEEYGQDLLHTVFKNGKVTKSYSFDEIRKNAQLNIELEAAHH
How it was run: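 Recombinant NAMPT reacted with 10 µM Nam, 0.5 µM PRPP, 2 µM ATP in Tris pH 7.4 buffer with MgCl2, DTT, BSA; product NMN quantified by fluorescence (ex 421/em 480 nm) after derivatization with 2-acetylbenzofuran. Compounds at 3 nM–10 µM; control-normalized signal used for IC50.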

[4] = tested on: primary cultured cells of mouse fetus-derived dorsal root ganglia (DRGs); assay: Suppression of axonal degeneration after axotomy in DRG explant culture; assay type: cell-based; details: minimum concentration at which axonal degeneration was suppressed (DI 0.3 or less), 24 hours after axotomy; for minimal effective concentration: Mus musculus, read-out: Evaluation on protection against degeneration
How it was run: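 Embryonic ICR mouse DRG explants were cultured 7–8 days in nicotinamide-free neuronal medium with NGF, then axotomized by removing the cell bodies. Compound (100 pM–10 µM final, 0.1% DMSO) was added within 30 min, and neurites were imaged 24 h later. The result is the lowest concentration giving degeneration index ≤0.3.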

hSARM1 [5] = molecular target: T1, hSARM1; assay: Human SARM1 activity measurement in HEK293 cells transiently transfected with ΔN-hSARM1 (PC6 fluorescent probe); assay type: cell-based; parameters: expressed in transfected cells; host or cells: HEK293, pcDNA3 expression vector
How it was run: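 HEK293 cells in nicotinamide-free DMEM with 5 μM nicotinamide, transiently transfected with mitochondrial-targeting-deleted ΔN-hSARM1; PC6 base-exchange fluorescent probe (50 μM) plus compound (30 μM) added ~8 h post-transfection. Fluorescence (ex 405/em 525 nm) read ~48 h from transfection; inhibition % versus transfected DMSO control, untransfected background subtracted.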

[6] = In vitro analysis of metabolite production with a UV (254 nm) chromatogram
[7] = inhibition rate, compound 30 µM, PC6 50 µM, HEK293 cells expressing ΔN-hSARM1, approximately 48 hours from transfection, read-out: Evaluation on hSARM1 inhibitory

Structure (SMILES)	Evaluation on NAMPT inhibitory [3]	minimal effective concentration [4] [µM]	inhibition at 30 µM (hSARM1 [5]; [7]) [%]	other results
Nc1ncnc2c1ncn2[C@@H]1O[C@H](COP(=O)([O-])OP(=O)(O)OC[C@H]2O[C@@H]([n+]3cccc(C(=O)NCCCOCCOCCCNC(=O)c4cccnc4)c3)[C@H](O)[C@@H]2O)[C@@H](O)[C@H]1O [compound 35-NAD-like metabolite]	–	–	–	SARM1 inhibitory activity (hSARM1 [1]): stronger activity than that of compound 35
O=C(NCCCOCCOCCCNC(=O)c1ccc[n+]([C@@H]2O[C@H](COP(=O)([O-])O)[C@@H](O)[C@H]2O)c1)c1cccnc1 [compound 35-NMN-like metabolite]	–	–	–	SARM1 inhibitory activity (hSARM1 [1]): stronger activity than that of compound 35
CC(C)(C)C(=O)Nc1ccc(CNC(=O)c2ccc[n+]([C@@H]3O[C@H](COP(=O)(O)OP(=O)([O-])OC[C@H]4O[C@@H](n5cnc6c(N)ncnc65)[C@H](O)[C@@H]4O)[C@@H](O)[C@H]3O)c2)cn1 [compound 76-NAD-like metabolite]	–	–	–	SARM1 inhibitory activity (hSARM1 [1]): stronger activity than that of compound 76
CC(C)(C)C(=O)Nc1ccc(CNC(=O)c2ccc[n+]([C@@H]3O[C@H](COP(=O)([O-])O)[C@@H](O)[C@H]3O)c2)cn1 [compound 76-NMN-like metabolite]	–	–	–	SARM1 inhibitory activity (hSARM1 [1]): stronger activity than that of compound 76; metabolites detected in the plasma [2]: detected, albeit at a much lower concentration than that of compound 76
O=C(NCc1ccc(NC(=O)c2ccc(C(F)(F)F)cc2)nc1)c1cccnc1 [compound 83]	○	≤ 0.01	> 50	–
O=C(NCc1ccc(NC(=O)c2cc(F)cc(C(F)(F)F)c2)nc1)c1cccnc1 [compound 84]	–	0.01 to 0.1	> 75	IC50 [3]: ≥ 100 nM
O=C(NCc1ccc(NC(=O)c2ccccc2OC(F)(F)F)nc1)c1cccnc1 [compound 85]	○	–	> 75	Evaluation on protection against degeneration [4]: B (0.01 µM < B ≤ 0.1 µM)
O=C(NCc1ccc(NC(=O)c2cccc(OC(F)(F)F)c2)nc1)c1cccnc1 [compound 86]	–	0.01 to 0.1	> 75	IC50 [3]: ≥ 100 nM
O=C(NCc1ccc(NC(=O)c2ccc(OC(F)(F)F)cc2)nc1)c1cccnc1 [compound 87]	○	≤ 0.01	> 50	–
CCC(C)(C)C(=O)Nc1ccc(CNC(=O)c2cccnc2)cn1 [compound 88]	○	0.01 to 0.1	> 50	–
C#CCOc1ccc(C(=O)Nc2ccc(CNC(=O)c3cccnc3)cn2)cc1 [compound 91]	○	≤ 0.01	> 50	–
O=C(NCCCCCCN1CCN(CCOC(=O)c2cccnc2)CC1)c1cccnc1 [compound 95]	○	≤ 0.01	> 50	–
NCCOCCCCCCCCNC(=O)c1cccnc1 [compound 96]	–	≤ 0.01	> 75	IC50 [3]: ≥ 100 nM
NCCOCCOCCCCCCCCNC(=O)c1cccnc1 [compound 97]	–	≤ 0.01	> 75	IC50 [3]: ≥ 100 nM
O=C(NCCOCCOc1ccccc1)c1cccnc1 [compound 98]	○	0.01 to 0.1	> 10	–
COc1cccc(OCCOCCNC(=O)c2cccnc2)c1 [compound 99]	○	0.01 to 0.1	> 50	–
O=C(NCCCC1NC(=O)C(CCCNC(=O)c2cccnc2)NC1=O)c1cccnc1 (stereo not drawn) [compound 103]	○	0.01 to 0.1	> 10	–
O=C(NCCCCC1NC(=O)C(CCCCNC(=O)c2cccnc2)NC1=O)c1cccnc1 (stereo not drawn) [compound 104]	○	0.1 to 1	> 10	–
Nc1ncnc2c1ncn2[C@@H]1O[C@H](COP(=O)([O-])OP(=O)(O)OC[C@H]2O[C@@H]([n+]3cccc(C(=O)NCc4ccc(NC(=O)c5ccccc5)nc4)c3)[C@H](O)[C@@H]2O)[C@@H](O)[C@H]1O [compound 105-NAD-like metabolite]	–	–	–	SARM1 inhibitory activity (hSARM1 [1]): exhibited stronger activity in this order
O=C(NCc1ccc(NC(=O)c2ccccc2)nc1)c1ccc[n+]([C@@H]2O[C@H](COP(=O)([O-])O)[C@@H](O)[C@H]2O)c1 [compound 105-NMN-like metabolite]	–	–	–	SARM1 inhibitory activity (hSARM1 [1]): exhibited stronger activity in this order
O=C(NCc1ccc(NC(=O)c2ccccc2)nc1)c1ccc[n+]([C@@H]2O[C@H](CO)[C@@H](O)[C@H]2O)c1 [compound 105-riboside form]	–	–	–	SARM1 inhibitory activity (hSARM1 [1]): exhibited stronger activity in this order; production of metabolites [6]: confirmed
NCCCOCCOCCCNC(=O)c1cccnc1 [compound 106]	○	≤ 0.01	> 25	–
O=C(NCc1ccc(NC(=O)C2CCOCC2)cc1)c1cccnc1 [compound 108]	–	≤ 0.01	> 75	IC50 [3]: ≥ 100 nM
O=C(NCc1ccc(NC(=O)C2CCC2)cc1)c1cccnc1 [compound 109]	○	≤ 0.01	> 75	–
O=C(NCc1ccc(NC(=O)c2ccccc2)c(F)c1)c1cccnc1 [compound 110]	○	–	–	Evaluation on protection against degeneration [4]: A (A ≤ 0.01 µM); inhibition at 30 µM (hSARM1 [5]; HEK293, read-out: Evaluation on hSARM1 inhibitory): > 25%
